Assay results: US9802928B2 (Merck Sharp & Dohme Corp., priority 2013, dated 2017)

Key:
[1] = target: soluble human BACE1 catalytic domain (Homo sapiens (Human), UniProt P56817); experiment: BACE1 HTRF FRET Assay; assay type: biochemical; conditions: Ki calculated from IC50 using the Cheng-Prusoff equation; QSY7-APPswe-Eu substrate, pH 5.0
From the text: Na^+-Acetate pH 5.0; 1% Brij-35; Glycerol; Dimethyl Sulfoxide (DMSO); Recombinant human soluble BACE1 catalytic domain (>95% pure); APP Swedish mutant peptide substrate (QSY7-APP^swe-Eu): QSY7-[…]-Europium-amide.
A homogeneous time-resolved FRET assay can be used to determine IC50 values for inhibitors of the soluble human BACE1 catalytic domain. This assay monitors the increase of 620 nm fluorescence that resulted from BACE1 cleavage of an APPswedish APP^swe mutant peptide FRET substrate (QSY7-[…]-Europium-amide). This substrate contains an N-terminal QSY7 moiety that serves as a quencher of the C-terminal Europium fluorophore (620 nm Em). In the absence of enzyme activity, 620 nm fluorescence is low in the assay and increased linearly over 3 hours in the presence of uninhibited BACE1 enzyme Inhibition of BACE1 cleavage of the QSY7-APP^swe-Eu substrate by inhibitors is manifested as a suppression of 620 nm fluorescence.
Varying concentrations of inhibitors at 3× the final desired concentration in a volume of 10 ul are preincubated with purified human BACE1 catalytic domain (3 nM in 10 μl) for 30 minutes at 30° C. in reaction buffer containing 20 mM Na-Acetate pH 5.0, 10% glycerol, 0.1% Brij-35 and 7.5% DSMO. Reactions are initiated by addition of 10 μl of 600 nM QSY7-APP^swe-Eu substrate (200 nM final) to give a final reaction volume of 30 μl in a 384 well Nunc HTRF plate. The reactions are incubated at 30° C. for 1.5 hours. The 620 nm fluorescence is then read on a Rubystar HTRF plate reader (BMG Labtechnologies) using a 50 millisecond delay followed by a 400 millisecond acquisition time window. Inhibitor IC50 values are derived from non-linear regression analysis of concentration response curves. Ki values are then calculated from IC50 values using the Cheng-Prusoff equation using a previously determined […] of 8 μM for the QSY7-APP^swe-Eu substrate at BACE1.

[2] = target: purified human autoBACE-2 (Homo sapiens (Human), UniProt Q9Y5Z0); experiment: BACE-2 Assay (BACE-HTRF assay); assay type: biochemical; conditions: Ki calculated from IC50 using the Cheng-Prusoff equation; QSY7-EISEVNLDAEFC-Eu-amide substrate, pH 5.0; read-out: BACE2 Ki
Sequence of purified human autoBACE-2 (Q9Y5Z0 63-473 limits assumed): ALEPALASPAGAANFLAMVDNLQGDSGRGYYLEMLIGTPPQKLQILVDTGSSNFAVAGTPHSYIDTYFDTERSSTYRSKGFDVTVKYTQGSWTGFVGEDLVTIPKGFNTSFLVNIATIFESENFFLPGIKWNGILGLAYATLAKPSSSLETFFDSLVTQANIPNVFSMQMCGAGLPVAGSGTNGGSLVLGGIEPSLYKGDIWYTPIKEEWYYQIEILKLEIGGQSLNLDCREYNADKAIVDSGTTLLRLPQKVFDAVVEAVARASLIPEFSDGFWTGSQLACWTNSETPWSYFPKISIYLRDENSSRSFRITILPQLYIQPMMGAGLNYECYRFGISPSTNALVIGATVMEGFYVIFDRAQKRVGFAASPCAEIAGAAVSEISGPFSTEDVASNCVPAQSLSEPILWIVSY
Experimental: Inhibitor IC50s at purified human autoBACE-2 are determined in a time-resolved endpoint proteolysis assay that measures hydrolysis of the QSY7-EISEVNLDAEFC-Eu-amide FRET peptide substrate (BACE-HTRF assay). BACE-mediated hydrolysis of this peptide results in an increase in relative fluorescence (RFU) at 620 nm after excitation with 320 nm light. Inhibitor compounds, prepared at 3× the desired final concentration in 1×BACE assay buffer (20 mM sodium acetate pH 5.0, 10% glycerol, 0.1% Brij-35) supplemented with 7.5% DMSO are pre-incubated with an equal volume of autoBACE-2 enzyme diluted in 1×BACE assay buffer (final enzyme concentration 1 nM) in black 384-well NUNC plates for 30 minutes at 30° C. The assay is initiated by addition of an equal volume of the QSY7-EISEVNLDAEFC-Eu-amide substrate (200 nM final concentration, Km=8 μM […] for autoBACE-2) prepared in 1×BACE assay buffer supplemented with 7.5% DMSO and incubated for 90 minutes at 30° C. DMSO is present at 5% final concentration in the assay. Following laser excitation of sample wells at 320 nm, the fluorescence signal at 620 nm is collected for 400 ms following a 50 μs delay on a RUBYstar HTRF plate reader (BMG Labtechnologies). Raw RFU data is normalized to maximum (1.0 nM BACE/DMSO) and minimum (no enzyme/DMSO) RFU values. IC50s are determined by nonlinear regression analysis (sigmoidal dose response, variable slope) of percent inhibition data with minimum and maximum values set to 0 and 100 percent respectively. Similar IC50s are obtained when using raw RFU data. The Ki values are calculated from the IC50 using the Cheng-Prusoff equation.

Sequence of soluble human BACE1 catalytic domain (P56817 75-416): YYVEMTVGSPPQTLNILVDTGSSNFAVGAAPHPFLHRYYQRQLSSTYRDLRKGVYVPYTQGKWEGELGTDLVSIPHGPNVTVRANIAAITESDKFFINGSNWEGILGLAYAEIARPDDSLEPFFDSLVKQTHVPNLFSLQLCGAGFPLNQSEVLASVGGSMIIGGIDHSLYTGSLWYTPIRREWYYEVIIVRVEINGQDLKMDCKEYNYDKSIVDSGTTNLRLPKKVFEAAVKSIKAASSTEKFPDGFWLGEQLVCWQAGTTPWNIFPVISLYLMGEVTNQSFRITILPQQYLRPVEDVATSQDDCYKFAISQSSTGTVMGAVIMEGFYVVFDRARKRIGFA

SMILES	Ki [1] [nM]	Ki [2] [nM]
CN1C(=N)N[C@](C)(c2cc(NC(=O)c3cnc(C(F)(F)F)cn3)ccc2F)C2(CC2)S1(=O)=O [Example 1p, 5-N-{4-fluoro-3-[(8R)-6-imino-5,8-dimethyl-4,4-dioxido-4-thia-5,7-diazaspiro[2.5]oct-8-yl]phenyl}-5-(trifluoromethyl)pyrazine-2-carboxamide]	58	346
CN1C(=N)N[C@](C)(c2cc(NC(=O)c3ncc(C(F)(F)F)cn3)ccc2F)C2(CC2)S1(=O)=O [Example 1i, N-{4-fluoro-3-[(8R)-6-imino-5,8-dimethyl-4,4-dioxido-4-thia-5,7-diazaspiro[2.5]oct-8-yl]phenyl}-5-(trifluoromethyl)pyrimidine-2-carboxamide]	47	106
C#CCOc1ccc(C(=O)Nc2ccc(F)c([C@@]3(C)NC(=N)N(C)S(=O)(=O)C34CC4)c2)nc1 [Example 1c, N-{4-fluoro-3-[(8R)-6-imino-5,8-dimethyl-4,4-dioxido-4-thia-5,7-diazaspiro[2.5]oct-8-yl]phenyl}-5-(prop-2-yn-1-yloxy)pyridine-2-carboxamide]	6	95
CN1C(=N)N[C@](C)(c2cc(NC(=O)c3cn4ccc(C#N)cc4n3)ccc2F)C2(CC2)S1(=O)=O [Example 1m, 7-cyano-N-{4-fluoro-3-[(8R)-6-imino-5,8-dimethyl-4,4-dioxido-4-thia-5,7-diazaspiro[2.5]oct-8-yl]phenyl}imidazo[1,2-a]pyridine-2-carboxamide]	5500	1640
CN1C(=N)N[C@](C)(c2cc(NC(=O)c3ccc(C(F)(F)F)cn3)ccc2F)C2(CC2)S1(=O)=O [Example 1f, N-{4-fluoro-3-[(8R)-6-imino-5,8-dimethyl-4,4-dioxido-4-thia-5,7-diazaspiro[2.5]oct-8-yl]phenyl}-5-(trifluoromethyl)pyridine-2-carboxamide]	8	55
CN1C(=N)N[C@](C)(c2cc(NC(=O)c3ccn(C(F)F)n3)ccc2F)C2(CC2)S1(=O)=O [Example 1l, 1-(difluoromethyl)-N-{4-fluoro-3-[(8R)-6-imino-5,8-dimethyl-4,4-dioxido-4-thia-5,7-diazaspiro[2.5]oct-8-yl]phenyl}-1H-pyrazole-3-carboxamide]	5	2
CN1C(=N)N[C@](C)(c2cc(NC(=O)c3cnc(OCCF)cn3)ccc2F)C2(CC2)S1(=O)=O [Example 1t, 5-(2-fluoroethoxy)-N-{4-fluoro-3-[(8R)-6-imino-5,8-dimethyl-4,4-dioxido-4-thia-5,7-diazaspiro[2.5]oct-8-yl]phenyl}pyrazine-2-carboxamide]	42	285

Other lines, results leading:

Ki [1] [nM]	Ki [2] [nM]	SMILES
2	5	Cc1cc(C#N)cnc1C(=O)Nc1ccc(F)c([C@@]2(C)NC(=N)N(C)S(=O)(=O)C23CC3)c1 [Example 1k, 5-cyano-N-{4-fluoro-3-[(8R)-6-imino-5,8-dimethyl-4,4-dioxido-4-thia-5,7-diazaspiro[2.5]oct-8-yl]phenyl}-3-methylpyridine-2-carboxamide]
22	10	COc1cnc(C(=O)Nc2ccc(F)c([C@@]3(C)NC(=N)N(C)S(=O)(=O)C34CC4)c2)c(C)c1 [Example 1j]
25	8	Cc1nc(C(=O)Nc2ccc(F)c([C@@]3(C)NC(=N)N(C)S(=O)(=O)C34CC4)c2)c(C)o1 [Example 1u, N-{4-fluoro-3-[(8R)-6-imino-5,8-dimethyl-4,4-dioxido-4-thia-5,7-diazaspiro[2.5]oct-8-yl]phenyl}-2,5-dimethyl-1,3-oxazole-4-carboxamide]
38	41	COc1cnc(C(=O)Nc2ccc(F)c([C@@]3(C)NC(=N)N(C)S(=O)(=O)C34CC4)c2)c(C)n1 [Example 1q, N-{4-fluoro-3-[(8R)-6-imino-5,8-dimethyl-4,4-dioxido-4-thia-5,7-diazaspiro[2.5]oct-8-yl]phenyl}-5-methoxy-3-methylpyrazine-2-carboxamide]
232	63	CN1C(=N)N[C@](C)(c2cc(NC(=O)c3cn4ccsc4n3)ccc2F)C2(CC2)S1(=O)=O [Example 1v, N-{4-fluoro-3-[(8R)-6-imino-5,8-dimethyl-4,4-dioxido-4-thia-5,7-diazaspiro[2.5]oct-8-yl]phenyl}imidazo[2,1-b][1,3]thiazole-6-carboxamide]
25	15	CN1C(=N)N[C@](C)(c2cc(NC(=O)c3cnsn3)ccc2F)C2(CC2)S1(=O)=O [Example 1d, N-{4-fluoro-3-[(8R)-6-imino-5,8-dimethyl-4,4-dioxido-4-thia-5,7-diazaspiro[2.5]oct-8-yl]phenyl}-1,2,5-thiadiazole-3-carboxamide]
